Data on 5 compounds can be found in the NIST ThermoML archive (doi:10.1021/je301370s).

This series is described as follows: xn = mol fraction of the nth substance listed. As to conditions: 101 kPa, Liquid, Taylor dispersion method, x1 = 0.

Regarding `NCCC(=O)O` [3-aminopropanoic acid] + O, the binary diffusion coefficient by setting is: (298.2 K) 9.37e-10 m2/s; (303.2 K) 1.06e-09 m2/s; (313.2 K) 1.35e-09 m2/s; (323.2 K) 1.64e-09 m2/s; (333.2 K) 1.97e-09 m2/s.

For `NCCCC(=O)O` [4-aminobutanoic acid] + O, the binary diffusion coefficient is, setting by setting: (298.2 K) 8.38e-10 m2/s; (303.2 K) 9.54e-10 m2/s; (313.2 K) 1.2e-09 m2/s; (323.2 K) 1.49e-09 m2/s; (333.2 K) 1.79e-09 m2/s.

Consider `NCCCCC(=O)O` [5-aminovaleric acid] + O, for which the binary diffusion coefficient by setting is: (298.2 K) 7.76e-10 m2/s; (303.2 K) 8.73e-10 m2/s; (313.2 K) 1.12e-09 m2/s; (323.2 K) 1.39e-09 m2/s; (333.2 K) 1.66e-09 m2/s.

Turning to `NCCCCCC(=O)O` [6-aminohexanoic acid] + O, the binary diffusion coefficient reads like this: (298.2 K) 7.28e-10 m2/s; (303.2 K) 8.25e-10 m2/s; (313.2 K) 1.05e-09 m2/s; (323.2 K) 1.29e-09 m2/s; (333.2 K) 1.57e-09 m2/s.

As to `NCCCCCCC(=O)O` [7-aminoheptanoic acid] + O, the binary diffusion coefficient by setting is: (298.2 K) 6.88e-10 m2/s; (303.2 K) 7.86e-10 m2/s; (313.2 K) 1e-09 m2/s; (323.2 K) 1.23e-09 m2/s; (333.2 K) 1.48e-09 m2/s.
